Measured values published in patent publication US7750046B2, “Treatment of symptoms associated with irritable bowel syndrome” (The Board of Trustees of the Leland Stanford Jr. University, priority 2001, dated 2010).
Entries after “also recorded” stand apart in the source; their conditions may differ.

Key:
Assay type in all cases: in vivo, human
[1] = tested on: subjects who met the Rome Criteria for IBS; assay: VAS abdominal pain score (20-point Visual Analogue scale) in IBS study; conditions: for Regression analysis: dependence of VAS score on drug dosage: larger doses; for p-value of drop in mean VAS pain scores: oral
Source text: (§1) This is a longitudinal single blinded, randomized placebo controlled study in which patients act as their own controls. Subjects were volunteers who met the Rome Criteria for IBS and without other active bowel disease (i.e. GERD, colon cancer). Both adult men and women participated, ranging in age from 23 to 75 years old, with greater number of women by a ratio of 2.5:1. Subjects responded to a Bowel Symptom Questionnaire (B. Naliboff, UCLA) as well as a Brief Mood Survey (D. Burns, Stanford). […] In addition, data was collected during a washout period of one week without any study drug.
(§2) A titration period of three to four weeks is being used to stabilize each patient on an efficacious dose of medication. […] During each week of the titration period, the cocktail was modified to allow a gradual increase or decrease in dose. Results were collected weekly by questionnaires.
(§3) Benefit in treating chronic IBS using nerve-acting agents was quantified by a decrease in mean values of abdominal pain with a 20-point Visual Analogue scale and a decrease in bowel symptoms (bloating, etc.) using a 20-point scale. Mood was also followed by a Brief Mood Survey, which rates Depression, Anxiety, Panic, Anger and Suicidal Urge (88 points maximum total).

[2] = tested on: subjects who met the Rome Criteria for IBS; assay: Bloating score (20-point scale, Bowel Symptom Questionnaire) in IBS study; conditions: for Regression analysis: dependence of bloating score on drug dosage: larger doses
Source text: as §1, §2, §3

[3] = tested on: subjects who met the Rome Criteria for IBS; assay: IBS study, symptom scores overall (VAS pain, bloating, mood); conditions: for Drug effect versus placebo effect, overall / Reduction of symptoms overall (H0 no reduction vs H1 some reduction): result in words
Source text: as §1, §2, §3

[4] = tested on: subjects who met the Rome Criteria for IBS; assay: Brief Mood Survey in IBS study; conditions: for Regression analysis: dependence of mood score on drug dosage: larger doses
Source text: as §1, §3

[5] = tested on: subjects who met the Rome Criteria for IBS; assay: Side effects reported in IBS study; conditions: 25 mg qhs; resolved after discontinuation
Source text: This is a longitudinal single blinded, randomized placebo controlled study in which patients act as their own controls. Subjects were volunteers who met the Rome Criteria for IBS and without other active bowel disease (i.e. GERD, colon cancer). Both adult men and women participated, ranging in age from 23 to 75 years old, with greater number of women by a ratio of 2.5:1. Subjects responded to a Bowel Symptom Questionnaire (B. Naliboff, UCLA) as well as a Brief Mood Survey (D. Burns, Stanford). Baseline questionnaire results were taken just prior to any drug treatment as well as shortly after. In addition, data was collected during a washout period of one week without any study drug. Drugs studied included intravenous lidocaine and a trial of the oral mexiletine, topiramate, gabapentin or placebo.
as §2

[6] = intravenous, 22 subjects, 20 point scale

NCC1(CC(=O)O)CCCCC1 [gabapentin]
Regression analysis: dependence of VAS score on drug dosage [1]: some effect | p-value of drop in mean VAS pain scores ([1]; 300 mg): 0.06 | p-value of drop in mean VAS pain scores ([1]; 600 mg): 0.04 | Regression analysis: dependence of bloating score on drug dosage [2]: some effect | Drug effect versus placebo effect, overall [3]: different from placebo at doses 600 mg and higher | Reduction of symptoms overall (H0 no reduction vs H1 some reduction) [3]: become more pronounced as the dosage is increased | Regression analysis: dependence of mood score on drug dosage [4]: not very important for mood

CCN(CC)CC(=O)Nc1c(C)cccc1C [lidocaine]
VAS Pain scores, mean reduction [1, 6]: 4.80 | Reduction of VAS (H0 no reduction vs H1 some reduction) ([1]; result in words): highly significant | Bloating, mean reduction [2, 6]: 6.8 | Reduction of bloating (H0 no reduction vs H1 some reduction) ([2]; result in words): highly significant | Relief of symptoms of abdominal pain, bloating and distension in IBS ([3]; intravenous): very effective | Drug effect versus placebo effect, overall [3]: much stronger effect than placebo | Reduction of symptoms overall (H0 no reduction vs H1 some reduction) [3]: All patients had a significant drop in their scores | Reduction of symptoms overall (H0 no reduction vs H1 some reduction) ([3]; listed as Lidocaine): most influential drug of all | Effect on mood (H0 no reduction vs H1 some reduction) ([4]; result in words): highly significant

Cc1cccc(C)c1OCC(C)N (centres unmarked) [mexiletine]
Regression analysis: dependence of VAS score on drug dosage [1]: some effect | VAS: drug effect versus placebo effect ([1]; result in words): different from placebo at all levels | Results in decreasing bloating ([2]; all dosages, 300 mg, 450 mg & 900 mg): significant results in decreasing bloating | Regression analysis: dependence of bloating score on drug dosage [2]: some effect | Bloating: drug effect versus placebo effect ([2]; result in words): different from placebo at all levels | Reduction of symptoms overall (H0 no reduction vs H1 some reduction) [3]: significant at all dosages | Regression analysis: dependence of mood score on drug dosage [4]: not very important for mood

CC1(C)O[C@@H]2[C@@H](CO[C@@]3(COS(N)(=O)=O)OC(C)(C)O[C@@H]23)O1 [topiramate]
VAS: drug effect versus placebo effect ([1]; result in words): different from placebo for VAS and bloating at doses 50 mg and higher | Effect on decreasing bloating ([2]; 60 mg): borderline effect | Bloating: drug effect versus placebo effect ([2]; result in words): different from placebo for VAS and bloating at doses 50 mg and higher | Side effects reported: fatigue, number of subjects [5]: Two | Regression analysis: dependence of any score on drug dosage ([3]; larger doses): do not significantly reduce any score in a predictable manner | Reduction of symptoms overall (H0 no reduction vs H1 some reduction) [3]: least effect of all drugs; also recorded: barely become significant at doses of 50 mg and higher
